Patent EP0075104A2, “Cephalosporin derivatives, process for their preparation, pharmaceutical compositions containing them and intermediates” (F. HOFFMANN-LA ROCHE & CO. Aktiengesellschaft, priority 1981, dated 1983)

Key:
in vivo = conditions: mouse, po
Klebsiella pneumoniae = assay: Oral curative dose (CD50) in infected mice, Klebsiella pneumoniae; format: in vivo; conditions: Maus, p.o., Erreger Klebsiella pneumoniae, dose at which 50% of the tested mice survive
Source text: (§1) Die orale antimikrobielle Wirksamkeit der erwähnten Produkte kann anhand von in-vivo-Versuchen an der Maus nachgewiesen werden. Im nachstehenden bedeutet die kurative Dosis (CD50, p.o., mg/kg) diejenige perorale Dosis, bei der 50% der getesteten Mäuse überleben.
(§2) Ergebnis (CD50, p.o. mg/kg)

Streptococcus pyogenes = assay: Oral curative dose (CD50) in infected mice, Streptococcus pyogenes; format: in vivo; conditions: Maus, p.o., Erreger Streptococcus pyogenes, dose at which 50% of the tested mice survive
Source text: as §1, §2

Escherichia coli = assay: Oral curative dose (CD50) in infected mice, Escherichia coli; format: in vivo; conditions: Maus, p.o., Erreger Escherichia coli, dose at which 50% of the tested mice survive
Source text: as §1, §2

Serratia marcescens = assay: Oral curative dose (CD50) in infected mice, Serratia marcescens; format: in vivo; conditions: Maus, p.o., Erreger Serratia marcescens, dose at which 50% of the tested mice survive
Source text: as §1, §2

| Compound | LD50 at 24 h (in vivo) | ED50 (Klebsiella pneumoniae) | ED50 (Streptococcus pyogenes) | ED50 (Escherichia coli) | ED50 (Serratia marcescens) |
| --- | --- | --- | --- | --- | --- |
| CO/N=C(\C(=O)N[C@@H]1C(=O)N2C(C(=O)OCOC(=O)C(C)(C)C)=C(CSc3nnc(C(=O)OC)n3C)CS[C@H]12)c1csc(N)n1 [Produkt A, Methylen-(6R,7R)-7-[(Z)-2-(2-Amino-4-thiazolyl)-2-(methoxyimino)-acetamido]-3-[[[5-(methoxycarbonyl)-4-methyl-4H-1,2,4-triazol-3-yl]thio]methyl]-8-oxo-5-thia-l-azabicyclo-[4.2.0]oct-2-en-2-carboxylat-pivalat] | > 5000 mg/kg | 4.4 mg/kg | 1.8 mg/kg | 0.11 mg/kg |  |
| CO/N=C(\C(=O)N[C@@H]1C(=O)N2C(C(=O)OCOC(=O)C(C)(C)C)=C(CSc3nc(C(=O)OC)n(C(C(=O)OCOC(=O)C(C)(C)C)c4ccccc4)n3)CS[C@H]12)c1csc(N)n1 (stereo partly drawn) [Produkt B, Methylen-(6R,7R)-7-C(Z)-2-(2-Amino-4-thiazolyl)-2-(methoxyimino)-acetamido]-3-[[[5-(methoxycarbonyl)-1-[(DL)-α-[[(pivaloyloxy)-methoxy]carbonyl]benzyl]-1H-1,2,4-triazol-3-yl]thio]methyl]-8-oxo-5-thia-1-azabicyclo-[4.2.0]oct-2-en-2-carboxylat-pivalat] |  | > 25 mg/kg | > 6 mg/kg | 5.5 mg/kg | > 25 mg/kg |
| CO/N=C(\C(=O)N[C@@H]1C(=O)N2C(C(=O)OCOC(=O)C(C)(C)C)=C(CSc3nc(C(=O)OC)n(-c4ccccc4)n3)CS[C@H]12)c1csc(N)n1 [Produkt C, Methylen-(6R,7R)-7-[(Z)-2-(2-Amino-4-thiazolyl)-2-(methoxyimino)-acetamido]3-[[[5-(methoxycarbonyl)-1-phenyl-lH-1,2,4-triazol-3-yl]thio]methyl]-8-oxo-5-thia-1-azabicyclo-[4.2.0]oct-2-en-2-carboxylat-pivalat] | > 5000 mg/kg | > 12 mg/kg | 2.4 mg/kg | 1.8 mg/kg | > 25 mg/kg |
| C=CCn1c(SCC2=C(C(=O)OCOC(=O)C(C)(C)C)N3C(=O)[C@@H](NC(=O)/C(=N\OC)c4csc(N)n4)[C@H]3SC2)nnc1C(=O)OC [Produkt D] | > 5000 mg/kg | > 12 mg/kg | 1.3 mg/kg | 0.11 mg/kg | 3.6 mg/kg |
| CCCCn1c(SCC2=C(C(=O)OCOC(=O)C(C)(C)C)N3C(=O)[C@@H](NC(=O)/C(=N\OC)c4csc(N)n4)[C@H]3SC2)nnc1C(=O)OC [Produkt E, Methylen-(6R,7R)-[(Z)-(2-Amino-4-thiazolyl)-2-(methoxyimino)-acetamido]-3-[[[4-(n-butyl)-5-(methoxycarbonyl)-4H-1,2,4-triazol-3-yl]-thio]methyl]-8-oxo-5-thia-1-azabicyclo[4.2.0]-oct-2-en-2-carboxylat-pivalat] |  | > 12 mg/kg | 3.5 mg/kg | 1.1 mg/kg | 37 mg/kg |
